Measurements taken from US20250100977A1, “MERCAPTOPYRIMIDINE COMPOUNDS THAT INHIBIT NONHOMOLOGOUS END JOINING AND METHODS THEREOF” (INDIAN INSTITUTE OF SCIENCE, priority 2021, published 2025).
Like-named read-outs stand apart in the source and are kept apart here.

Experiments:
rat testicular extracts = assay: Inhibition of end joining of rat testicular extracts (NHEJ); format: biochemical; conditions: for Inhibition of end joining (in words): 200 μM; for Inhibition of end joining (no joined product observed): 500 μM, rat testicular extract; for End joining after Ligase IV added back to inhibited testicular extract: complementation with purified Ligase IV/XRCC4
Protocol: The compounds of the present invention were tested for their effects on inhibition of DNA end joining reactions using rat tissue extracts and purified DNA Ligase IV/XRCC4. Rat testicular extracts were prepared from testes of 4-6 week old male Wistar rats, Rattus norvegicus using ammonium sulphate precipitation method. To determine end joining of cell-free extracts, radiolabeled double-stranded (ds) oligomeric DNA substrate was incubated with rat testicular extract at 25° C. in suitable NHEJ buffer. Extracts were incubated for 30 min with the compounds of Formula I (01-41, 500 μM) as prepared in Example 1, and then radioactive DNA substrate was added to the reaction mixture and incubated for 1 h at 25° C. Reactions were stopped using EDTA, and products were purified using phenol: chloroform extraction and loaded on denaturing polyacrylamide gel. […] Joining efficiency was calculated using the intensity of product bands (150 bp or higher) in individual lanes in Multi Gauge software as compared to control (lanes 2,3). Lane 1 denotes radioactive substrate in absence of protein or inhibitor, while M denotes radiolabeled 50 bp DNA ladder.
(§1) Effects of these compounds on NHEJ and Ligase IV mediated joining were evaluated (FIG. 4A-K). The reactions were terminated by EDTA (10 mM), products were purified using phenol/chloroform, precipitated with chilled ethanol and glycogen, and resolved on 8% denaturing PAGE. The gel was dried, exposed, and signal was detected using phosphor Imager FLA9000 (Fuji, Japan), and quantified in MultiGauge software expressed as Photo Stimulated Luminescence Units (PSLU). Inhibition of end joining was reported at 200 μM and 100 μM, respectively for SCR116 and SCR132 (FIGS. 4A, B, C and D), with >50% inhibition at 200 and 100 μM concentrations, respectively. […] FIG. 4K depict the purification profile of Ligase IV and XRCC4. Further FIGS. 4L-M represent inhibition of end joining catalysed by (FIG. 4L) purified Ligase III/XRCCI in presence of SCR116 and SCR132 (50, 100, 200, 500, 1000 μM) and (FIG. 4M) by purified Ligase I in presence of increasing concentrations of SCR116 and SCR132 (10, 50, 100, 200, 500, 1000 μM).

DNA Ligase IV/XRCC4 = biological target: T1, DNA Ligase IV/XRCC4 (Homo sapiens, UniProt P49917); assay: Inhibition of end joining by purified DNA Ligase IV/XRCC4; format: biochemical; conditions: for inhibition at 50 µM: Ligase IV; for Inhibition of end joining compared with control: 200 μM, purified Ligase IV/XRCC4; for Concentration from which inhibition of end joining was seen: dose titration with Ligase IV
T1 construct: made in house; host or cells: bacteria
T1 sequence (P49917 whole entry): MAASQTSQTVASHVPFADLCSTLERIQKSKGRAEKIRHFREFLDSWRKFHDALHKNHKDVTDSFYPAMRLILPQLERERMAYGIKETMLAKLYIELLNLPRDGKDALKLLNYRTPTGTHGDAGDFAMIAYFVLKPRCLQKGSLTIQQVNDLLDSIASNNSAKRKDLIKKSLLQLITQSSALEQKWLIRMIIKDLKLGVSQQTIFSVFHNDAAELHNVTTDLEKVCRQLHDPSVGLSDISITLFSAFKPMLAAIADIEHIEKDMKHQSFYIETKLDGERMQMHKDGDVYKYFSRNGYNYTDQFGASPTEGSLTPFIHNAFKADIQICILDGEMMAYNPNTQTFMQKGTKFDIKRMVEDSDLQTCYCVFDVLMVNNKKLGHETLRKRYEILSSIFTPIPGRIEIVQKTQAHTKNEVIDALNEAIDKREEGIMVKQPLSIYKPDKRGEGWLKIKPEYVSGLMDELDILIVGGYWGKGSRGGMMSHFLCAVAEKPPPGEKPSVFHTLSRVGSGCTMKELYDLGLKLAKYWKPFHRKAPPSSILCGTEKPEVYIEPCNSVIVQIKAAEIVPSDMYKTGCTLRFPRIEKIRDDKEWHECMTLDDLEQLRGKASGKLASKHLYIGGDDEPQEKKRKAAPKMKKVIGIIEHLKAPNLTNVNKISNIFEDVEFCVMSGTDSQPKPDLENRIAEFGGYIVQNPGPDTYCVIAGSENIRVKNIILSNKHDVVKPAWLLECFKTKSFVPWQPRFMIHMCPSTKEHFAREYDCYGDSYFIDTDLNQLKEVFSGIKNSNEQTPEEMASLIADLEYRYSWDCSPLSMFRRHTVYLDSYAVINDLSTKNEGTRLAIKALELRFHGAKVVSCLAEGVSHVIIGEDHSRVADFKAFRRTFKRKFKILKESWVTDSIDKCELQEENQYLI
T1 sequence (Q13426 whole entry partner): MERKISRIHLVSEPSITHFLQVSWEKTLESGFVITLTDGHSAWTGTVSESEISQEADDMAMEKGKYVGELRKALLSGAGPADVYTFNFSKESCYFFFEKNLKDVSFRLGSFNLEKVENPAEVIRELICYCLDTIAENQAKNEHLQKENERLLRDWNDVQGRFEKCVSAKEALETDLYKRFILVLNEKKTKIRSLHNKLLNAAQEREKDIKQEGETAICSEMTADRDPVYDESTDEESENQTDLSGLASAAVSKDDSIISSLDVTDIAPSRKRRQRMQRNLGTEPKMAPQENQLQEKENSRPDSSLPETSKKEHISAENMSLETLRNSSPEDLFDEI
Protocol: The compounds of Formula I were evaluated for their specific inhibition activity towards enzyme DNA Ligase IV. DNA Ligase IV/XRCC4 was purified from bacteria using Ni-NTA column (FIG. 2A), and used for evaluation of inhibition of end joining of the compounds (01-41) at 200 μM (FIGS. 2B, C and D). The compounds were incubated with purified Ligase IV/XRCC4 in suitable NHEJ buffer at 25° C. for 30 min, followed by addition of radiolabeled DNA, and further incubation for 1 h at 25° C. Products were purified using phenol: chloroform and run on denaturing PAGE.
as §1

HeLa = assay: Cytotoxicity (viable cells) in HeLa; format: cell-based; conditions: read-out: IC50 in cancer cell lines, HeLa
Protocol: The compounds of the present invention were screened initially in leukemic and cervical cancer cell lines (Table 1). […] In cervical cancer cell line HeLa, IC50 was 5 and 2 μM, respectively for SCR116 and SCR132 (FIG. 5A-B).
(§2) Ligase IV specificity of the compounds of the present invention inside the cells were also determined using Ligase IV knock out (KO) cell line N114 compared to the wild type Nalm6 (Table 2, FIGS. 5C, D, E and F). […] Table 1 showing IC50 of SCR7 derivatives in cancer cell lines Nalm6 and HeLa. IC50 was calculated using GraphPad Prism software from the percentage of viable cells following treatment with the compounds at 48 h. Table 2 showing IC50 of SCR116 and SCR132 in a panel of 16 cancer cell lines.

Supt1 = assay: Cytotoxicity in Supt1; format: cell-based; conditions: Homo sapiens, SUP-T1; Table 2; read-out: IC50 in cancer cell lines, Supt1
Protocol: as §2

Raji = assay: Cytotoxicity in Raji; format: cell-based; conditions: Homo sapiens, Raji; Table 2; read-out: IC50 in cancer cell lines, Raji
Protocol: as §2

LN229 = assay: Cytotoxicity in LN229; format: cell-based; conditions: Homo sapiens, LN-229; Table 2; read-out: IC50 in cancer cell lines, LN229
Protocol: as §2

U118 = assay: Cytotoxicity in U118; format: cell-based; conditions: Table 2; read-out: IC50 in cancer cell lines, U118
Protocol: as §2

EAC = assay: Cytotoxicity in EAC; format: cell-based, mice; conditions: Mus musculus; Table 2; read-out: IC50 in cancer cell lines, EAC
Protocol: as §2

Molt4 derived xenograft = assay: Mouse xenograft model, Molt4; format: in vivo; conditions: for Tumor volume: alternate days; for Survival: tumor control animals died by day 18
Protocol: Effect of the compounds was further evaluated in mouse xenograft model generated using Ligase IV high human leukemic cell line, Molt4. Oral doses of SCR116 and SCR132 at 10 mg/kg and 15 mg/kg respectively were administered on alternate days.

SCC084 derived xenograft = assay: Mouse xenograft model, SCC084; format: in vivo; conditions: oral cancer SCC084 xenograft; 8 oral doses
[1] = 10 days dose ranging toxicity study; format: in vivo, Swiss albino mice; conditions: for Hemoglobin, MCHC, total leukocyte count and platelets: after 10 days of dose-ranging study; for Body weight: oral 80, 160 and 320 mg/kg b.wt., male and female, days 1, 8, 15, 22
Protocol: FIG. 12 depicts 10 days dose ranging toxicity studies of SCR116 and SCR132 (A) Body weight analyses of mice on 1, 8, 15 and 22 days after oral administration of low, medium and high concentrations of SCR116 and SCR132 (80, 160 and 320 mg/kg b.wt. respectively) in male. Mice treated with methyl cellulose served as vehicle control; and (B) Body weight analyses of mice on 1, 8, 15 and 22 days after oral administration of SCR116 and SCR132 (80, 160 and 320 mg/kg b.wt. respectively) in female.
FIG. 13 depicts the blood parameters analysis of Swiss albino mice after 10 days of dose-ranging study after treating with SCR116 and SCR132. A. RBC (n=3). B. Hemoglobin (n=3). C. MCHC (n=3). D. Total leukocyte count (n=3). E. Platelet count (n=3) (ns: not significant, *p<0.05: **p<0.005).

[2] = Homo sapiens, HeLa, 48 h, Table 1, 48 h

Q: With `Nc1nc(S)nc(O)c1/N=C/c1ccc([N+](=O)[O-])s1` [Compound 16, (E)-6-amino-2-mercapto-5-(((5-nitrothiophen-2-yl)methylene)amino)pyrimidin-4-ol] as the compound, how does the “Inhibition of end joining (in words)” value (rat testicular extracts) read?
A: The value was “complete inhibition of end joining”.

Q: What about the “Inhibition of end joining (no joined product observed)” value (rat testicular extracts) of the same compound?
A: The value was “showed inhibition of end joining”.

Q: What about the “End joining after Ligase IV added back to inhibited testicular extract” value (rat testicular extracts) of the same compound?
A: The value was “joining efficiency was restored”.

Q: What about the inhibition at 50 µM (DNA Ligase IV/XRCC4) of the same compound?
A: Its inhibition at 50 µM is greater than 50%.

Q: And the “Inhibition of end joining compared with control” value (DNA Ligase IV/XRCC4)?
A: The value was “significant inhibition of end joining”.

Q: And the “Concentration from which inhibition of end joining was seen” value (DNA Ligase IV/XRCC4)?
A: Its value is 5 µM.

Q: What about the IC50 (HeLa; [2]) of the same compound?
A: Its IC50 is 5.92 µM.

Q: And the IC50 (HeLa; Homo sapiens, HeLa, Table 2)?
A: The IC50 was 5 µM.

Q: What about the IC50 (Supt1) of the same compound?
A: Its IC50 is 1.32 µM.

Q: And the IC50 (Raji)?
A: Its IC50 is 4.37 µM.

Q: What about the IC50 (LN229) of the same compound?
A: Its IC50 is 5.6 µM.

Q: And the IC50 (U118)?
A: Its IC50 is 5.6 µM.

Q: What about the IC50 (EAC) of the same compound?
A: The IC50 was 16.5 µM.

Q: What about the Tumor volume (Molt4 derived xenograft; oral 10 mg/kg) of the same compound?
A: Its Tumor volume is “effectively reduced the tumor volume”.

Q: What about the Survival (Molt4 derived xenograft; oral 10 mg/kg) of the same compound?
A: Its Survival is “survived the entire experimental period”.

Q: And the Tumor volume (SCC084 derived xenograft)?
A: Its Tumor volume is “significant reduction in tumor volume”.

Q: And the “Hemoglobin, MCHC, total leukocyte count and platelets” value [1]?
A: The value was “no significant difference in hemoglobin, MCHC, total leukocyte count and platelets”.

Q: And the RBC count ([1]; low doses, values still within the normal range)?
A: The RBC count was “significant difference in RBC count”.

Q: And the Body weight [1]?
A: Its Body weight is “no significant change in body weight”.

Q: What does the source list for `Nc1nc(S)nc(O)c1/N=C/c1sc(Cl)nc1Cl` [Compound 32, (E)-6-amino-5-(((2,4-dichlorothiazol-5-yl)methylene)amino)-2-mercaptopyrimidin-4-ol]?
A: Inhibition of end joining (in words) (rat testicular extracts): complete inhibition of end joining; Inhibition of end joining (no joined product observed) (rat testicular extracts): showed inhibition of end joining; End joining after Ligase IV added back to inhibited testicular extract (rat testicular extracts): joining efficiency was restored; inhibition at 50 µM (DNA Ligase IV/XRCC4): > 50%; Inhibition of end joining compared with control (DNA Ligase IV/XRCC4): significant inhibition of end joining; Concentration from which inhibition of end joining was seen (DNA Ligase IV/XRCC4): 10 µM; IC50 (HeLa; [2]): 2.08 µM; IC50 (HeLa; Homo sapiens, HeLa, Table 2): 2 µM; IC50 (HeLa; Table 2, listed as SCR132): 2.08 µM; IC50 (Supt1): 0.734 µM; IC50 (Raji): 1.59 µM; IC50 (LN229): 7.7 µM; IC50 (U118): 4.1 µM; IC50 (EAC): 14.8 µM; Tumor volume (Molt4 derived xenograft; oral 15 mg/kg): effectively reduced the tumor volume; Survival (Molt4 derived xenograft; oral 15 mg/kg): survived the entire experimental period; Tumor volume (SCC084 derived xenograft): significant reduction in tumor volume; Hemoglobin, MCHC, total leukocyte count and platelets [1]: no significant difference in hemoglobin, MCHC, total leukocyte count and platelets; Body weight [1]: no significant change in body weight
